Earlier results on one compound are cited in patent US10487097B2, “4,6-di-(O-thiophosphate)-inositol-1,2,3,5-tetra-O-sulfate for C. difficile infection” (priority 2015, dated 2019).

For the series the following is noted: colon lumen, background statement.

With `O=P(O)(O)O[C@H]1[C@H](OP(=O)(O)O)[C@@H](OP(=O)(O)O)[C@H](OP(=O)(O)O)[C@@H](OP(=O)(O)O)[C@H]1OP(=O)(O)O` [IP6, inositol hexakisphosphate], the “precipitation due to high calcium concentration” value was “precipitates”.
